Strand notation (5' to 3'): a small letter for the sugar, then the base; units joined by * are phosphorothioate-linked, units joined directly phosphodiester-linked; [ ] holds rarer units or linkages, { } end groups; capitals alone tell only the bases. k = constrained ethyl (cEt); [5mC] = 5-methylcytosine; d = 2'-deoxy (DNA)
System: Yap1 mRNA
Assay: Antisense inhibition of human Yap1 in A-431 cells by cEt gapmers, single dose (Example 3, RTS36584)
Format: cell-based
How it was run: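 Read-out is Yap1 mRNA as percent of untreated control, by quantitative RT-PCR normalized to total RNA (RiboGreen). Cells (A-431) received 2,000 nM of 3-10-3 cEt phosphorothioate gapmer via free uptake for roughly 48 hours.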

[1] = Table 11, A-431 cells, 5,000 cells per well, free uptake, 2,000 nM oligonucleotide, approx. 48 hours, primer probe set RTS36584, Yap1 mRNA normalized to RIBOGREEN, percent of untreated control
[2] = Table 28, Yap1 mRNA as percent of untreated control, 3-10-3 cEt gapmers targeting SEQ ID NO.: 1, and 2
[3] = Table 10, A-431 cells, 5,000 cells per well, free uptake, 2,000 nM oligonucleotide, approx. 48 hours, primer probe set RTS36584, Yap1 mRNA normalized to RIBOGREEN, percent of untreated control
[4] = Table 8, A-431 cells, 5,000 cells per well, free uptake, 2,000 nM, approximately 48 hours, RTS36584, normalized to RIBOGREEN, Yap1 mRNA relative to untreated control cells
[5] = Table 29, Yap1 mRNA as percent of untreated control, 3-10-3 cEt gapmers targeting SEQ ID NO.: 1, and 2
[6] = Table 26, Yap1 mRNA by 3-10-3 cEt gapmers targeting SEQ ID NO.: 1, and 2, percent of untreated control
[7] = Table 34, Yap1 mRNA as percent of untreated control, 3-10-3 cEt gapmers targeting SEQ ID NO: 1 and 2, single dose
[8] = Table 13, A-431 cells, 5,000 cells per well, free uptake, 2,000 nM modified oligonucleotide, approx. 48 hours, RTS36584, normalized to RIBOGREEN, Yap1 mRNA relative to untreated control cells
[9] = Table 27, Yap1 mRNA by 3-10-3 cEt gapmers targeting SEQ ID NO.: 1, and 2, percent of untreated control

958723 (antisense kA*kA*k[5mC]*d[5mC]*d[5mC]*dA*d[5mC]*dT*dA*dA*dA*dA*d[5mC]*k[5mC]*kG*kG) [Compound 958723]
YAP1 (% UTC) [1]: 63 % UTC

1074350 (antisense kT*kA*kG*dT*d[5mC]*d[5mC]*dA*d[5mC]*dT*dG*dT*d[5mC]*dT*kG*kT*kA) [compound 1074350]
YAP1 (% UTC) [2]: 14 % UTC

958747 (antisense kG*kT*kA*dA*dA*dG*dA*dG*dG*dG*dT*dG*dA*k[5mC]*kA*kT) [Compound 958747]
YAP1 (% UTC) [3]: 106 % UTC

958753 (antisense kT*kG*kT*dA*dT*dA*dT*dG*d[5mC]*d[5mC]*dG*dT*dT*k[5mC]*k[5mC]*k[5mC]) [Compound 958753]
YAP1 (% UTC) [1]: 4 % UTC

958789 (antisense kT*kA*k[5mC]*dT*dA*dT*dA*dT*dA*dA*dT*dA*d[5mC]*k[5mC]*k[5mC]*kT) [Compound 958789]
YAP1 (% UTC) (Table 12, A-431 cells, 5,000 cells per well, free uptake, 2,000 nM modified oligonucleotide, approx. 48 hours, RTS36584, normalized to RIBOGREEN, Yap1 mRNA relative to untreated control cells): 17 % UTC

958667 (kT*kG*k[5mC]*d[5mC]*dG*dG*dG*d[5mC]*d[5mC]*d[5mC]*d[5mC]*dT*dA*kT*kG*k[5mC]; antisense) [Compound 958667]
YAP1 (% UTC) [3]: 80 % UTC

958389 (antisense k[5mC]*kG*kG*dA*dG*dG*d[5mC]*dG*d[5mC]*dG*d[5mC]*dG*d[5mC]*kA*kT*kT) [Compound 958389]
YAP1 (% UTC) [4]: 126 % UTC

1075567 (kG*kA*kT*dA*dT*dA*dT*dA*dA*d[5mC]*dA*dG*dG*k[5mC]*k[5mC]*kA; antisense) [compound 1075567]
YAP1 (% UTC) [5]: 65 % UTC

1076140 (kA*k[5mC]*kG*dA*dA*dA*dA*dA*dA*dG*d[5mC]*d[5mC]*dA*kA*k[5mC]*kA; antisense) [compound 1076140]
YAP1 (% UTC) [6]: 28 % UTC

958522 (kA*kA*kT*dT*dA*dG*dT*d[5mC]*d[5mC]*dA*dA*dG*dG*kG*kA*kG; antisense) [Compound 958522]
YAP1 (% UTC) [3]: 32 % UTC

958493 (kA*kA*kA*d[5mC]*dA*dG*dT*d[5mC]*dT*dT*d[5mC]*dA*dG*k[5mC]*k[5mC]*kT; antisense) [Compound 958493]
YAP1 (% UTC) [1]: 16 % UTC

1075852 (kG*kA*kT*dA*dA*dG*d[5mC]*d[5mC]*dG*dA*dA*dT*dA*kT*kG*kG; antisense) [compound 1075852]
YAP1 (% UTC) [6]: 58 % UTC

1075636 (antisense k[5mC]*kA*kA*dT*dA*dA*dA*d[5mC]*dA*d[5mC]*d[5mC]*dT*d[5mC]*kG*k[5mC]*k[5mC]) [compound 1075636]
YAP1 (% UTC) [7]: 91 % UTC

958450 (antisense kG*kG*kT*d[5mC]*dG*d[5mC]*d[5mC]*dG*d[5mC]*dG*dG*dG*dT*kG*k[5mC]*k[5mC]) [Compound 958450]
YAP1 (% UTC) [8]: 59 % UTC

1074708 (antisense k[5mC]*kT*kT*dT*dA*dA*dT*dG*dG*d[5mC]*dA*dG*d[5mC]*kA*k[5mC]*kG) [compound 1074708]
YAP1 (% UTC) [7]: 55 % UTC

1074319 (antisense kG*k[5mC]*kT*dA*dA*d[5mC]*dT*d[5mC]*d[5mC]*dT*dG*dA*d[5mC]*kA*kT*kT) [compound 1074319]
YAP1 (% UTC) [5]: 47 % UTC

958375 (antisense kA*kA*kA*dG*d[5mC]*d[5mC]*dT*dT*dA*dG*dA*dG*dT*k[5mC]*kA*kA) [Compound 958375]
YAP1 (% UTC) [4]: 2 % UTC

1075437 (antisense kT*kA*kT*dT*dA*dG*dT*dA*d[5mC]*dG*dA*dG*d[5mC]*kT*kA*k[5mC]) [compound 1075437]
YAP1 (% UTC) [9]: 85 % UTC

958693 (antisense kG*kT*kG*dG*dT*dG*dT*d[5mC]*dT*d[5mC]*dA*d[5mC]*dA*kG*kG*k[5mC]) [Compound 958693]
YAP1 (% UTC) [1]: 99 % UTC

958378 (antisense k[5mC]*kA*kT*d[5mC]*dA*dG*dT*dA*d[5mC]*dT*dG*dG*d[5mC]*k[5mC]*kT*kA) [Compound 958378]
YAP1 (% UTC) [4]: 25 % UTC

1074286 (antisense kT*kG*kA*dT*dT*d[5mC]*dT*d[5mC]*dT*dG*dG*dT*dT*k[5mC]*kA*kT) [compound 1074286]
YAP1 (% UTC) [2]: 32 % UTC

958515 (k[5mC]*k[5mC]*k[5mC]*d[5mC]*dA*dA*d[5mC]*d[5mC]*dA*dG*dA*dT*dT*kT*kA*kA; antisense) [Compound 958515]
YAP1 (% UTC) [8]: 28 % UTC

958612 (antisense kA*k[5mC]*k[5mC]*dT*dA*dA*d[5mC]*dA*dT*dA*dT*dG*dA*kG*k[5mC]*kA) [Compound 958612]
YAP1 (% UTC) [3]: 18 % UTC

958466 (antisense kG*kT*k[5mC]*dA*dT*dT*dA*dA*dG*dG*dA*dT*dG*kT*k[5mC]*kA) [Compound 958466]
YAP1 (% UTC) (Table 9, A-431 cells, 5,000 cells per well, free uptake, 2,000 nM, approximately 48 hours, RTS36584, normalized to RIBOGREEN, Yap1 mRNA relative to untreated control cells): 9 % UTC

1075125 (k[5mC]*kT*kT*dA*dA*dG*dG*dT*dA*d[5mC]*dA*dA*dG*kG*k[5mC]*kA; antisense) [compound 1075125]
YAP1 (% UTC) (Table 35, Yap1 mRNA as percent of untreated control, 3-10-3 cEt gapmers targeting SEQ ID NO: 1 and 2, single dose): 84 % UTC

958733 (antisense kT*kA*kA*dT*dA*dG*dA*d[5mC]*dT*dA*dG*dA*d[5mC]*kT*kT*kA) [Compound 958733]
YAP1 (% UTC) [1]: 67 % UTC

1075375 (antisense k[5mC]*kT*kA*dA*dA*dT*dA*dT*d[5mC]*dA*dA*d[5mC]*dT*k[5mC]*k[5mC]*k[5mC]) [compound 1075375]
YAP1 (% UTC) [5]: 35 % UTC

958396 (antisense kA*kG*kG*d[5mC]*dT*dA*dT*dT*dA*dA*dG*d[5mC]*dT*kG*kT*kT) [Compound 958396]
YAP1 (% UTC) [4]: 131 % UTC

1074157 (kA*kG*k[5mC]*dG*dA*dG*dG*dG*d[5mC]*dT*dA*d[5mC]*dG*k[5mC]*k[5mC]*k[5mC]; antisense) [compound 1074157]
YAP1 (% UTC) [9]: 103 % UTC

958653 (kT*kT*kA*d[5mC]*dA*d[5mC]*dA*d[5mC]*dA*dG*dG*d[5mC]*dT*kA*kT*kG; antisense) [Compound 958653]
YAP1 (% UTC) [1]: 17 % UTC

1076141 (kT*kA*k[5mC]*dG*dA*dA*dA*dA*dA*dA*dG*d[5mC]*d[5mC]*kA*kA*k[5mC]; antisense) [compound 1076141]
YAP1 (% UTC) [9]: 29 % UTC

1074988 (antisense kA*k[5mC]*k[5mC]*dG*d[5mC]*dG*dG*d[5mC]*dG*dG*dA*dG*dT*kG*kG*kA) [compound 1074988]
YAP1 (% UTC) [6]: 94 % UTC

1076308 (kA*kG*kT*dA*dA*dT*dT*dA*d[5mC]*d[5mC]*dT*d[5mC]*dT*kA*kA*kT; antisense) [compound 1076308]
YAP1 (% UTC) [7]: 32 % UTC

1076244 (k[5mC]*kA*kA*dT*dT*dT*dG*dG*dG*dA*dT*dA*dT*kT*k[5mC]*kG; antisense) [compound 1076244]
YAP1 (% UTC) [7]: 14 % UTC

1076148 (kT*kA*kT*dT*dA*dA*d[5mC]*dT*d[5mC]*dA*d[5mC]*dG*dA*kA*kG*kA; antisense) [compound 1076148]
YAP1 (% UTC) [7]: 52 % UTC

1074767 (kT*kT*kA*dT*d[5mC]*d[5mC]*d[5mC]*dA*dA*dT*dG*d[5mC]*dT*kA*k[5mC]*k[5mC]; antisense) [compound 1074767]
YAP1 (% UTC) [5]: 12 % UTC

1074573 (DNA kA*kT*kT*dA*dT*dG*dA*dA*d[5mC]*d[5mC]*dT*dA*d[5mC]*kT*k[5mC]*kA) [compound 1074573]
YAP1 (% UTC) [9]: 14 % UTC

958617 (antisense kG*kA*kG*dG*dT*dG*dG*dT*d[5mC]*dT*dT*dG*dT*kT*k[5mC]*kT) [Compound 958617]
YAP1 (% UTC) [3]: 40 % UTC

958457 (antisense kG*kT*k[5mC]*dG*dA*dA*dG*dA*dT*dG*d[5mC]*dT*dG*kA*kG*k[5mC]) [Compound 958457]
YAP1 (% UTC) [3]: 5 % UTC

From patent US11214803B2, “Modulators of YAP1 expression” (Ionis Pharmaceuticals, Inc., priority 2019, dated 2022)
